Counter-ions that a name gives are not always drawn.
Assays:
HTT = experiment: HiBiT protein abundance assay, HTT (K562 HiBiT knock-in); format: cell-based, human; conditions: HiBiT knock-in K562 cells, 24 hours, top dose 10 μM
In short: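 Endogenously HiBiT-tagged K562 lines were treated for 24 h at 37 °C with 10-point 3-fold dilutions (top 10 μM final, DMSO ≤0.25%). Lytic LgBiT complementation luminescence was normalized between unmodified K562 (PC) and DMSO-treated tagged cells (NC); IC50 was interpolated at 50% from a four-parameter logistic fit.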

Target C = experiment: RT-qPCR canonical junction panel assay, Target C mRNA; format: cell-based; conditions: Table 4, read-out: Target C IC50 (decrease in CJ mRNA levels)
In short: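 IC50 is the concentration giving 50% CJ decrease, from a 4-parameter logistic fit of percent response; response derived from ΔΔCt against housekeeper and DMSO over a fixed ΔCt window, with canonical exon-junction qPCR in compound-treated K562 or A673 cells.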

| IC50 (HTT) | IC50 (Target C) | Structure (SMILES) |
| --- | --- | --- |
| 0.1 to 1 µM | > 10 µM | C[C@@H]1CN(c2ccc3nc(-c4cc5cn(C)nc5c(F)c4O)nc(C(N)=O)c3c2)C[C@H](C)N1 [Compound 712, 6-[(3R,5S)-3,5-dimethylpiperazin-1-yl]-2-(7-fluoro-6-hydroxy-2-methylindazol-5-yl) quinazoline-4-carboxamide] |
| 0.1 to 1 µM | 0.1 to 1 µM | CC(=O)c1nc(-c2cc3cn(C)nc3c(F)c2O)nc2ccc(N3C[C@@H](C)N[C@@H](C)C3)cc12 [Compound 717, 1-{6-[(3R,5S)-3,5-dimethylpiperazin-1-yl]-2-(7-fluoro-6-hydroxy-2-methylindazol-5-yl)quinazolin-4-yl}ethanone] |
| < 0.1 µM | 0.1 to 1 µM | CNC(=O)c1nc(-c2cc3cn(C)nc3c(F)c2O)nc2ccc(N3CCC(N4CCC4)CC3)cc12 [Compound 722, 6-[4-(azetidin-1-yl)piperidin-1-yl]-2-(7-fluoro-6-hydroxy-2-methylindazol-5-yl)-N-methylquinazoline-4-carboxamide] |
| 0.1 to 1 µM | 1 to 10 µM | CNC(=O)c1nc(-c2cc3cn(C)nc3c(F)c2O)nc2ccc(N3CCNC4(CC4)C3)cc12 [Compound 728, 6-{4,7-diazaspiro[2.5]octan-7-yl}-2-(7-fluoro-6-hydroxy-2-methylindazol-5-yl)-N-methylquinazoline-4-carboxamide] |
| < 0.1 µM | < 0.1 µM | CNC(=O)c1nc(-c2cc3cn(C)nc3c(F)c2O)nc2ccc(N3CC[C@@H](NC)C3)cc12 [Compound 729, 2-(7-fluoro-6-hydroxy-2-methylindazol-5-yl)-N-methyl-6-[(3R)-3-(methylamino)pyrrolidin-1-yl]quinazoline-4-carboxamide] |
| 1 to 10 µM | 1 to 10 µM | C[C@@H]1CN(c2ccc3nc(-c4cc5cn(C)nc5c(F)c4O)nc(C(=O)NCCO)c3c2)C[C@H](C)N1 [Compound 737, 6-[(3R,5S)-3,5-dimethylpiperazin-1-yl]-2-(7-fluoro-6-hydroxy-2-methylindazol-5-yl)-N-(2-hydroxyethyl)quinazoline-4-carboxamide] |
| 1 to 10 µM | > 10 µM | CNC(=O)c1nc(-c2cc3cn(C)nc3cc2O)nc2ccc(N3CCC(N(C)C)CC3)cc12 [Compound 742, 6-[4-(dimethylamino)piperidin-1-yl]-2-(6-hydroxy-2-methylindazol-5-yl)-N-methylquinazoline-4-carboxamide] |
| < 0.1 µM | 1 to 10 µM | C[C@H]1CN(c2ccc3nc(-c4cc5cn(C)nc5c(F)c4O)ncc3c2)C[C@H](C)N1 [Compound 744, 5-{6-[(3S,5S)-3,5-dimethylpiperazin-1-yl]quinazolin-2-yl}-7-fluoro-2-methylindazol-6-ol] |
| 0.1 to 1 µM | 1 to 10 µM | C[C@@H]1CN(c2ccc3nc(-c4cc5cn(C)nc5c(F)c4O)ncc3c2)C[C@@H](C)N1 [Compound 745, 5-{6-[(3R,5R)-3,5-dimethylpiperazin-1-yl]quinazolin-2-yl}-7-fluoro-2-methylindazol-6-ol] |

Further lines, the compound ahead of its results:

| Structure (SMILES) | IC50 (HTT) | IC50 (Target C) |
| --- | --- | --- |
| Cc1cc(N2C[C@@H](C)N[C@@H](C)C2)cc2c(Cl)cc(-c3cc4cn(C)nc4c(F)c3O)nc12 [Compound 723, 5-{4-chloro-6-[(3R,5S)-3,5-dimethylpiperazin-1-yl]-8-methylquinolin-2-yl}-7-fluoro-2-methylindazol-6-ol] | < 0.1 µM | 0.1 to 1 µM |
| C[C@@H]1CN(c2ccc3nc(-c4cc5cn(C)nc5c(F)c4O)nc(-c4nccs4)c3c2)C[C@H](C)N1 [Compound 732, 5-{6-[(3R,5S)-3,5-dimethylpiperazin-1-yl]-4-(1,3-thiazol-2-yl)quinazolin-2-yl}-7-fluoro-2-methylindazol-6-ol] | 1 to 10 µM | > 10 µM |
| C[C@@H]1CN(c2ccc3nc(-c4cc5cn(C)nc5c(F)c4O)ncc3c2)C[C@H](C)N1 [Compound 743, 5-{6-[(3R,5S)-3,5-dimethylpiperazin-1-yl]quinazolin-2-yl}-7-fluoro-2-methylindazol-6-ol] | 1 to 10 µM | 1 to 10 µM |
| CN[C@@H]1CCN(c2cc3c(Cl)cc(-c4cc5cn(C)nc5c(C)c4O)nc3cc2C)C1 [Compound 748, 5-{4-chloro-7-methyl-6-[(3R)-3-(methylamino)pyrrolidin-1-yl]quinolin-2-yl}-2,7-dimethylindazol-6-ol] | > 10 µM | > 10 µM |
| CN[C@H]1CCN(c2cc3c(Cl)cc(-c4cc5cn(C)nc5c(C)c4O)nc3cc2C)C1 [Compound 749, 5-{4-chloro-7-methyl-6-[(3S)-3-(methylamino)pyrrolidin-1-yl]quinolin-2-yl}-2,7-dimethylindazol-6-ol] | > 10 µM | 1 to 10 µM |
| Cn1cc2cc(-c3ncc4cc(N5CCC(N6CCC6)CC5)ccc4n3)c(O)c(F)c2n1 [Compound 750, 5-{6-[4-(azetidin-1-yl)piperidin-1-yl]quinazolin-2-yl}-7-fluoro-2-methylindazol-6-ol] | 0.1 to 1 µM | 0.1 to 1 µM |
| C[C@@H]1CN(c2ccc3nc(-c4cc5cn(C)nc5cc4O)ncc3c2)C[C@H](C)N1 [Compound 751, 5-{6-[(3R,5S)-3,5-dimethylpiperazin-1-yl]quinazolin-2-yl}-2-methylindazol-6-ol hydrochloride] | > 10 µM | > 10 µM |
| C[C@H]1CN(c2ccc3nc(-c4cc5cn(C)nc5cc4O)ncc3c2)C[C@H](C)N1 [Compound 752, 5-{6-[(3S,5S)-3,5-dimethylpiperazin-1-yl]quinazolin-2-yl}-2-methylindazol-6-ol] | 0.1 to 1 µM | > 10 µM |
| C[C@@H]1CN(c2ccc3nc(-c4cc5cn(C)nc5cc4O)ncc3c2)C[C@@H](C)N1 [Compound 753, 5-{6-[(3R,5R)-3,5-dimethylpiperazin-1-yl]quinazolin-2-yl}-2-methylindazol-6-ol] | 0.1 to 1 µM | > 10 µM |
| CCN(CC)C1CCN(c2ccc3nc(-c4cc5cn(C)nc5c(F)c4O)ncc3c2)CC1 [Compound 756, 5-{6-[4-(diethylamino)piperidin-1-yl]quinazolin-2-yl}-7-fluoro-2-methylindazol-6-ol] | 0.1 to 1 µM | 0.1 to 1 µM |

From patent US20250092065A1, “2-(INDAZOL-5-YL)-6-(PIPERIDIN-4-YL)-1,7-NAPHTHYRIDINE DERIVATIVES AND RELATED COMPOUNDS AS MODULATORS FOR SPLICING NUCLEIC ACIDS AND FOR THE TREATMENT OF PROLIFERATIVE DISEASES” (REMIX THERAPEUTICS INC., priority 2022, published 2025)
